Test results from patent US20230021647A1, “METHOD OF TREATING A PATIENT INFECTED WITH A CORONAVIRUS AND HAVING A BASELINE LEVEL OF CRP BELOW 150 MG/L” (Theravance Biopharma R&D IP, LLC, priority 2021, published 2023).
Marks after values point to notes of the source that are not given here.

Assays:
Type in all cases: in vivo, human
[1] = tested on: acute lung injury associated with COVID-19; experiment: Phase 2 study Part 1, multiple ascending dose in hospitalized COVID-19 patients; details: for subjects discharged from the hospital: by Day 21 (placebo 50%); for # Subjects Alive: Part 1, COVID-19 patients
[2] = Phase 1 SAD/MAD study of inhaled compound 1 in healthy subjects
Protocol: This was a phase 1, 2-part, double-blind, randomized, placebo controlled, sponsor-open, SAD (Part A) and MAD (Part B). Subjects participated in only 1 cohort in only 1 study part.
Part A (SAD) consisted of three (3) cohorts of 8 healthy subjects (6 active and 2 placebo). In each cohort, subjects received a single inhaled dose of compound 1 or placebo. […] Cardiodynamic monitoring via Holter monitors was conducted pre-dose and for at least 24 hours following dosing on Day 1 in each cohort, with rest periods for cardiodynamic electrocardiogram (ECG) extractions time matched to the PK sampling time points.
Part B (MAD) consisted of three (3) cohorts of 10 healthy subjects (8 active and 2 placebo). In each cohort, subjects received inhaled doses once daily (QD) for 7 days. […] Blood samples for PK assessment were also collected pre-dose on the morning of Days 3 through 6. Cardiodynamic monitoring via Holter monitors may be conducted pre-dose on Day 1 and pre-dose and for at least 24 hours following dosing on the morning of Day 7 in each cohort with rest periods for cardiodynamic ECG extractions time matched to the PK sampling time points.
In Parts A and B, safety data (i.e., physical examinations, vital signs, 12-lead safety ECGs, spirometry, clinical laboratory tests, and adverse events [AEs]) were assessed throughout the study; and blood and urine samples were collected for safety assessments. All subjects who received at least one dose of study drug (including subjects who terminated the study early) returned to the CRU 7 (±2) days after the last study drug administration for follow-up procedures, and to determine if any AEs have occurred since the last study visit.
In Part B, subjects received inhaled doses QD for 7 days using a nebulizer device.
Morning doses on Days 1 and 7 were administered under fasting conditions due to cardiodynamic monitoring. On all other times, doses were administered at least 30 minutes after completion of a meal or snack. Hour 0 was defined as the beginning of inhalation in each morning dose administration.

[3] = tested on: acute lung injury associated with COVID-19; experiment: Phase 2 study Part 2, 3 mg vs placebo in hospitalized COVID-19 patients; details: for time to recovery, median: placebo 11
Protocol: Eligible subjects were stratified by age (≤60 vs >60 years) and concurrent use of antiviral medications (e.g., remdesivir, lopinavir, chloroquine) at baseline. […] Approximately 20% of participants were enrolled with a baseline clinical status score of six (NIPPV or high flow oxygen device) based on the 8-point ordinal scale (Table 13).
The study drug was administered at 3 mg once-daily in a single dose with an additional 3 mg loading dose on day 1, for up to 7 days or until discharge from the hospital, whichever was earlier. Subjects were followed for up to 28 days or until death, whichever was earlier.
Matching placebo was administered once daily for up to 7 days, via inhalation using a vibrating mesh nebulizer.
In Part 2, the primary endpoint was the number of RFDs from randomization through Day 28. Secondary Endpoints were: change from baseline in SaO2/FiO2 ratio on Day 7, proportion of subjects in each category of the 8-point clinical status scale on Days 7, 14, 21 and 28, and proportion of subjects alive and respiratory failure-free on Day 28. […] Additional exploratory endpoints may include: change from baseline in SaO2/FiO2 ratio in mmHg on Day 7, number of VFDs from randomization to Day 28, proportion of subjects with a SaO2/FiO2 ratio >300 on Days 5 and 7, proportion of subjects in each category of the 6-point clinical status scale on Days 7, 14, 21 and 28, proportion of subjects in each category of vital status (death, discharge, hospitalized) on Days 7, 14, 21 and 28, proportion of subjects with an oxygen saturation >90% on room air, proportion of subjects with fever (>37° C. oral or equivalent), chest imaging (when done for clinical care reasons), biomarkers including: nasal SARS-CoV-2 viral load. The safety endpoints were: change from baseline in vital signs and clinical laboratory results, and incidence and severity of TEAEs. The PK endpoints were population PK parameters for compound 1.
The primary endpoint was the number of respiratory failure-free days (RFDs) from randomization through Day 28. A RFD was defined as a day that a subject is alive and not requiring the use of invasive mechanical ventilation, non-invasive positive pressure ventilation, high-flow oxygen devices, or oxygen supplementation from randomization through Day 28. A clinical status score of <4 (Table 13) was equivalent to a respiratory failure-free day. The number of RFDs was 0 for subjects who use respiratory support for 28 days or longer, or for subjects who died on or before Day 28.
Treatment comparisons were performed using a Van Elteren test (a stratified Wilcoxon rank sum test) adjusting for stratification factors. Treatment difference were summarized based on median of RFD between compound 1 and placebo. Additional prognostic baseline covariates (e.g., comorbidities) were included in the sensitivity analyses.
For SaO2/FiO2, treatment comparisons versus placebo were conducted using a mixed-model repeated measures (MMRM) model. The model included fixed effects for randomized treatment group, study day (Day 7, 14, 21 and 28), treatment group by study day interaction, baseline SaO2/FiO2 ratio, treatment group by baseline SaO2/FiO2 ratio interaction, and stratification factors (baseline age group ≤60 vs >60 years, and concurrent use of antiviral medication at baseline Yes vs. No). A random effect for subject was also included in the model. An unstructured covariance matrix was used to estimate covariance of within-patient scores. The Kenward-Roger approximation was used to estimate denominator degrees of freedom. From this model, least squares means, standard errors, treatment differences in LS means, and 95% confidence intervals (CIs) were estimated.

[4] = Part 1, 1 mg QD inhaled, Day 28
[5] = Part 1, 3 mg QD inhaled, Day 28
[6] = Part 1, 10 mg QD inhaled, Day 28
[7] = single and multiple inhaled doses

## CCc1cc(O)ccc1-c1ccc2c(-c3nc4c([nH]3)CN(C(C)C)[C@H](C(=O)N3CC(N(C)C)C3)C4)n[nH]c2c1 [Compound 1, (S)-(3-(dimethylamino)azetidin-1-yl)(2-(6-(2-ethyl-4-hydroxyphenyl)-1H-indazol-3-yl)-5-isopropyl-4,5,6,7-tetrahydro-3H-imidazo[4,5-c]pyridin-6-yl)methanone]
[1]; Part 1, 1 mg
  Still in Hospital at Day 28: 0 subjects (%)
[1]; Part 1, 1 mg QD inhaled
  Died (All-Cause Mortality): 1 (16.7%) subjects (%)
[1]; [4]
  # Subjects Respiratory Failure-Free: 5 (83.3%) subjects (%)
  Proportion of Subjects Alive and Respiratory Failure-free: 5 (83.3%) subjects (%)
[1]; Part 1, 1 mg group
  deaths observed: one
[1]; Part 1, 1 mg, Day 7
  Hospital Discharge: 0 subjects (%)
[1]; Part 1, 1 mg, Day 14
  Hospital Discharge: 2 (33.3%) subjects (%)
[1]; Part 1, 1 mg, Day 21
  Hospital Discharge: 3 (50.0%) subjects (%)
[1]; Part 1, 1 mg, Day 28
  Clinical Status 1-Not hospitalized, no limitations on activities: 5 (83.3%) subjects (%)
  Clinical Status 2-Not hospitalized, but with limitations on activities and/or requiring home oxygen: 0 subjects (%)
  Clinical Status 3-Hospitalized, not requiring supplemental oxygen, and no longer requiring ongoing medical care: 0 subjects (%)
  Clinical Status 4-Hospitalized, not requiring supplemental oxygen, but requiring ongoing medical care: 0 subjects (%)
  Clinical Status 5-Hospitalized, requiring supplemental oxygen: 0 subjects (%)
  Clinical Status 6-Hospitalized, on non-invasive ventilation or high-flow oxygen devices: 0 subjects (%)
  Clinical Status 7-Hospitalized, on invasive mechanical ventilation or extracorporeal membrane oxygenation: 0 subjects (%)
  Clinical Status 8-Death: 1 (16.7%) subjects (%)
  Hospital Discharge: 5 (83.3%) subjects (%)
[1]; Part 1, 3 mg
  Still in Hospital at Day 28: 0 subjects (%)
  subjects discharged from the hospital: 86%
[1]; Part 1, 3 mg QD inhaled
  Died (All-Cause Mortality): 0 subjects (%)
[1]; [5]
  # Subjects Respiratory Failure-Free: 6 (85.7%)* subjects (%)
  Proportion of Subjects Alive and Respiratory Failure-free: 6 (85.7%)* subjects (%)
[1]; Part 1, 3 mg, Day 7
  Hospital Discharge: 1 (14.3%) subjects (%)
[1]; Part 1, 3 mg, Day 14
  Hospital Discharge: 2 (28.6%) subjects (%)
[1]; Part 1, 3 mg, Day 21
  Hospital Discharge: 6 (85.7%) subjects (%)
[1]; Part 1, 3 mg, Day 28
  Clinical Status 1-Not hospitalized, no limitations on activities: 5 (83.3%) subjects (%)
  Clinical Status 2-Not hospitalized, but with limitations on activities and/or requiring home oxygen: 0 subjects (%)
  Clinical Status 3-Hospitalized, not requiring supplemental oxygen, and no longer requiring ongoing medical care: 0 subjects (%)
  Clinical Status 4-Hospitalized, not requiring supplemental oxygen, but requiring ongoing medical care: 1 (16.7%) subjects (%)
  Clinical Status 5-Hospitalized, requiring supplemental oxygen: 0 subjects (%)
  Clinical Status 6-Hospitalized, on non-invasive ventilation or high-flow oxygen devices: 0 subjects (%)
  Clinical Status 7-Hospitalized, on invasive mechanical ventilation or extracorporeal membrane oxygenation: 0 subjects (%)
  Clinical Status 8-Death: 0 subjects (%)
  Hospital Discharge: 7 (100%) subjects (%)
[1]; Part 1, 10 mg
  Still in Hospital at Day 28: 0 subjects (%)
  subjects discharged from the hospital: 100%
[1]; Part 1, 10 mg QD inhaled
  Died (All-Cause Mortality): 0 subjects (%)
[1]; [6]
  # Subjects Respiratory Failure-Free: 6 (100.0%) subjects (%)
  Proportion of Subjects Alive and Respiratory Failure-free: 6 (100.0%) subjects (%)
[1]; Part 1, 10 mg, Day 7
  Hospital Discharge: 0 subjects (%)
[1]; Part 1, 10 mg, Day 14
  Hospital Discharge: 2 (33.3%) subjects (%)
[1]; Part 1, 10 mg, Day 21
  Hospital Discharge: 6 (100%) subjects (%)
[1]; Part 1, 10 mg, Day 28
  Clinical Status 1-Not hospitalized, no limitations on activities: 5 (83.3%) subjects (%)
  Clinical Status 2-Not hospitalized, but with limitations on activities and/or requiring home oxygen: 1 (16.7%) subjects (%)
  Clinical Status 3-Hospitalized, not requiring supplemental oxygen, and no longer requiring ongoing medical care: 0 subjects (%)
  Clinical Status 4-Hospitalized, not requiring supplemental oxygen, but requiring ongoing medical care: 0 subjects (%)
  Clinical Status 5-Hospitalized, requiring supplemental oxygen: 0 subjects (%)
  Clinical Status 6-Hospitalized, on non-invasive ventilation or high-flow oxygen devices: 0 subjects (%)
  Clinical Status 7-Hospitalized, on invasive mechanical ventilation or extracorporeal membrane oxygenation: 0 subjects (%)
  Clinical Status 8-Death: 0 subjects (%)
  Hospital Discharge: 6 (100%) subjects (%)
[1]; 1 mg QD inhaled, Day 28
  # Subjects Alive: 5 (83.3%) subjects (%)
[1]; 3 mg QD inhaled, Day 28
  # Subjects Alive: 7 (100.0%)* subjects (%)
[1]; 10 mg QD inhaled, Day 28
  # Subjects Alive: 6 (100.0%) subjects (%)
[1]; Part 1, all compound 1 groups
  trend vs placebo in oxygenation, clinical status, mortality, respiratory-failure free, time to discharge, Borg Dyspnea Score: positive trend
[1]; Part 1, mostly 3 mg and 10 mg doses
  trend in reduction of inflammation markers (hsCRP, IFN-g, IL-6, IP-10) and RAGE: positive trend
[2]; 1 mg QD inhaled, Day 1
  AUC0-24: 18.42 ng·h/mL
[2]; 1 mg QD inhaled, Day 7
  Cmax: 5.699 ng/mL
[2]; [7]
  Tmax: approximately 1 hour
  terminal elimination half-life: approximately 24 hours
[2]; single inhaled dose 3 mg, mean (SD)
  t1/2: 24.73 (2.802) hr
[3]; Part 2
  plasma exposure: low
  tolerability: well-tolerated
[3]; Part 2, placebo 2.0%
  serious infections, patients: 1.0%
[3]; Part 2, placebo 4.9%
  venous thromboembolism, patients: none
[3]; Part 2, placebo 7.8%
  adverse events of liver abnormalities or disease, patients: 9.7%
[3]; Part 2, placebo 13 (12.7%)
  patients discontinued from study, withdrawal for adverse event: 8 (7.8%) n (%)
[3]; Part 2, placebo 15.7%
  serious adverse events, patients: 9.7%
[3]; Part 2, placebo 41.2%
  adverse events, patients: 34.0%
[3]; Part 2 ITT
  secondary endpoints vs placebo: change in SaO2/FiO2 at Day 7, 8-point Clinical Status, alive and respiratory failure-free at Day 28: no difference
  time to recovery, median: 10 days
[3]; Part 2 ITT vs placebo, p=0.08
  28-day all-cause mortality HR: 0.42
[3]; Part 2 ITT vs placebo, p=0.12
  time to recovery HR: 1.27
[3]; Part 2 ITT, 3 mg QD, placebo 21, p=0.61
  RFDs from randomization through Day 28, median: 21 days
[3]; Part 2 ITT, placebo 13
  28-day all-cause mortality, total number of deaths: 6
[3]; Part 2 post-hoc, baseline CRP <150 mg/L vs placebo, p=0.009
  28-day all-cause mortality HR: 0.097
[3]; Part 2 post-hoc, baseline CRP <150 mg/L vs placebo, p=0.02
  time to recovery HR: 1.48
[3]; Part 2 post-hoc, baseline CRP <150 mg/L, placebo 9
  28-day all-cause mortality, total number of deaths: 1
[3]; Part 2 post-hoc, baseline CRP <150 mg/L
  time to recovery, median: 10 days
[3]; Part 2 post-hoc, baseline CRP >150 mg/L (n=30)
  time to recovery or 28-day all-cause mortality vs placebo: no difference
